Values joined by “and” are separate entries in the source; they are usually repeats but may differ in a detail not shown here. Identical values can stand only once.
What was measured:
[1] = system: breast cancer cell line MDA-MB-231; experiment: MTT assay, cell proliferation inhibition; assay type: cell-based; settings: for cell proliferation inhibition rate: 48 h, samples 1-3
Description: (§1) Material: aptamer triptolide conjugate (AS1411-TP). Triptolide (TP) was provided by Shanghai Yaji Biotechnology Co. Ltd; aptamer (AS1411) was obtained from Chengdu Pilot Drug Development Co. Ltd; trypsin, thiazolyl blue (MTT) (Biofroxx, Germany); dimethyl sulfoxide (DMSO) (MP Biomedicals, France); fetal bovine serum (FBS) (Newzerum, New Zealand); DMEM medium, RPMI1640 medium, Petri dishes, 96-well plates (Corning, USA); colon cancer cells HCT116, breast cancer cells MDA-MB-231, non-small-cell lung cancer cells A549, pancreatic cancer cells PANC-1, and hepatocellular carcinoma cells HepG2 were purchased from the Shanghai Cell Bank of the Chinese Academy of Sciences and preserved in the laboratory.
(§2) Take the tumor cells HCT116, MDA-MB-231, A549, PANC-1 and HepG2 cell lines from the liquid nitrogen tank, place them in a 37° C. water bath, wait for the frozen cells to melt into cell suspension, centrifuge the cells at 1000 r/min for 3 min, discard the supernatant, add 1 ml of fresh complete medium containing 10% fetal bovine serum and 1% double antibody to mix the cells, then add 5 ml of medium, gently and repeatedly blowing the cells with a pipette gun to make them mix well. Then add 5 ml of medium, blow the cells gently and repeatedly with a pipette gun to mix them well, and finally transfer the cell suspension to a […] and label the cell name, cell number, date of resuscitation and the operator's name, and place it in a cell culture incubator for cultivation. (HCT116, PANC-1 and HepG2 cell lines were cultured in DMEM medium, while MDA-MB-231 cell line and A549 cell line were cultured in RPMI1640 medium).
(§3) Take HCT116, MDA-MB-231, A549, PANC-1, HepG2 cells with good growth status, remove the medium, add 1 ml of sterile PBS to wash, add 1.5 ml of trypsin to digest the cells, about 2 min later the cells become round and fall off, add 1.5 ml of medium to terminate the digestion, transfer it to centrifugal tube, centrifuge at 1000 r/min for 3 min, discard the supernatant, add 1 ml of fresh medium to resuspend, then add fresh medium for 1:3 distribution to other culture dishes, and label the date of transmission and the number of generations. Place in the cell culture incubator for cultivation.
(§4) Take HCT116, MDA-MB-231, A549, PANC-1, HepG2 cells with good growth status, by the same operation as the cell passaging experiment, after cell resuspension, cell counting with hemocyte counting plate, with 2500 cells/well, plant in 96-well plate, after 24 h of cell culture, remove the original medium, add medium containing different concentrations of drugs and continue to cultivate for 48 hours. After 24 h of cell culture, the original medium was removed and the medium containing different concentrations of drugs was added to continue the culture for 48 hours. […] The above steps were repeated three times.

[2] = system: colon cancer cell line HCT116; experiment: MTT assay, cell proliferation inhibition; assay type: cell-based; settings: for cell proliferation inhibition rate: 48 h, samples 1-3
Description: as §1, §2, §3, §4

[3] = system: hepatocellular carcinoma cell line HepG2; experiment: MTT assay, cell proliferation inhibition; assay type: cell-based; settings: for cell proliferation inhibition rate: 48 h, samples 1-3
Description: as §1, §2, §3, §4

[4] = system: lung adenocarcinoma cell line A549; experiment: MTT assay, cell proliferation inhibition; assay type: cell-based; settings: for cell proliferation inhibition rate: 48 h, samples 1-3
Description: as §1, §2, §3, §4

[5] = system: pancreatic cancer cell line PANC-1; experiment: MTT assay, cell proliferation inhibition; assay type: cell-based; settings: for cell proliferation inhibition rate: 48 h, samples 1-3
Description: as §1, §2, §3, §4

[6] = system: colon cancer cells HCT116; experiment: In vivo antitumor activity, colon cancer xenograft in nude mice; set-up: species or system mouse; Tumor weight: unit not given here; settings: HCT116 model, once every 2 days, 8 doses
Description: (§5) The following are the in vivo activity studies conducted in different tumor-bearing mice:
(§6) A PBS negative control group was set up.

[7] = system: lung cancer cell line A549; experiment: In vivo antitumor activity, lung cancer xenograft in nude mice; set-up: species or system mouse; Tumor weight: unit not given here; settings: A549 model, once every 2 days, 8 doses
Description: as §5, §6

AS1411: nucleolin aptamer, single-stranded oligonucleotide, SEQ ID NO: 1 GGTGGTGGTGGTTGTGGTGGTGGTGG
cell proliferation inhibition rate ([1]; MDA-MB-231, 3.1 nM, 0.0031 µM): 2.2910 and 2.1209 and 2.5159 | cell proliferation inhibition rate ([1]; MDA-MB-231, 6.3 nM, 0.0063 µM): 3.2333 and 4.9611 and 4.2994 | cell proliferation inhibition rate ([1]; MDA-MB-231, 25.0 nM, 0.025 µM): 5.5843 and 7.7330 and 4.4586 | cell proliferation inhibition rate ([1]; MDA-MB-231, 50.0 nM, 0.05 µM): 6.8129 and 6.6467 and 6.1306 | cell proliferation inhibition rate ([1]; MDA-MB-231, 100.0 nM, 0.1 µM): 9.0069 and 8.0722 and 8.6624 | cell proliferation inhibition rate ([1]; MDA-MB-231, 200.0 nM, 0.2 µM): 14.4727 and 11.8492 and 10.6369 | inhibitory effect on tumor cell ([1]; MDA-MB-231, at the experimental concentration): did not have any significant inhibitory effect | cell proliferation inhibition rate ([2]; HCT116, 6.3 nM, 0.0063 µM): 2.9669 and 1.6683 and 3.1584 | cell proliferation inhibition rate ([2]; HCT116, 12.5 nM, 0.0125 µM): 4.1987 and 3.0229 and 2.5102 | cell proliferation inhibition rate ([2]; HCT116, 25.0 nM, 0.025 µM): 5.4987 and 6.2971 and 5.6986 | cell proliferation inhibition rate ([2]; HCT116, 50.0 nM, 0.05 µM): 6.5424 and 6.5952 and 5.0330 | cell proliferation inhibition rate ([2]; HCT116, 100.0 nM, 0.1 µM): 10.6504 and 12.1637 and 10.9076 | cell proliferation inhibition rate ([2]; HCT116, 200.0 nM, 0.2 µM): 16.9608 and 13.5881 and 14.2937 | inhibitory effect on tumor cell ([2]; HCT116, at the experimental concentration): did not have any significant inhibitory effect | cell proliferation inhibition rate ([3]; HepG2, 3.1 nM, 0.0031 µM): 2.0417 and 2.2455 and 2.1946 | cell proliferation inhibition rate ([3]; HepG2, 12.5 nM, 0.0125 µM): 3.5280 and 2.4483 and 3.6148 | cell proliferation inhibition rate ([3]; HepG2, 25.0 nM, 0.025 µM): 4.1258 and 3.9268 and 4.1946 | cell proliferation inhibition rate ([3]; HepG2, 50.0 nM, 0.05 µM): 8.4300 and 6.9712 and 9.6253 | cell proliferation inhibition rate ([3]; HepG2, 100.0 nM, 0.1 µM): 7.2906 and 11.7328 and 8.7216 | cell proliferation inhibition rate ([3]; HepG2, 200.0 nM, 0.2 µM): 10.3764 and 15.8325 and 9.9457 | inhibitory effect on tumor cell ([3]; HepG2, at the experimental concentration): did not have any significant inhibitory effect | cell proliferation inhibition rate ([4]; A549, 12.5 nM, 0.0125 µM): 5.5843 and 7.7330 and 4.4586 | cell proliferation inhibition rate ([4]; A549, 25.0 nM, 0.025 µM): 6.8129 and 6.6467 and 6.1306 | cell proliferation inhibition rate ([4]; A549, 50.0 nM, 0.05 µM): 9.0069 and 8.0722 and 7.6624 | cell proliferation inhibition rate ([4]; A549, 100.0 nM, 0.1 µM): 11.4727 and 11.8492 and 10.6369 | cell proliferation inhibition rate ([4]; A549, 200.0 nM, 0.2 µM): 14.5704 and 11.4171 and 14.3285 | inhibitory effect on tumor cell ([4]; A549, at the experimental concentration): did not have any significant inhibitory effect | cell proliferation inhibition rate ([5]; PANC-1, 12.5 nM, 0.0125 µM): 3.6656 and 3.5639 and 3.6148 | cell proliferation inhibition rate ([5]; PANC-1, 25.0 nM, 0.025 µM): 3.0417 and 4.2455 and 4.1946 | cell proliferation inhibition rate ([5]; PANC-1, 50.0 nM, 0.05 µM): 7.2954 and 7.9552 and 9.6253 | cell proliferation inhibition rate ([5]; PANC-1, 100.0 nM, 0.1 µM): 8.3147 and 7.1285 and 8.7216 | cell proliferation inhibition rate ([5]; PANC-1, 200.0 nM, 0.2 µM): 9.6236 and 10.2679 and 9.9457 | inhibitory effect on tumor cell ([5]; PANC-1, at the experimental concentration): did not have any significant inhibitory effect | RTV ([6]; 10 μM 100 μL tail vein): 33.13 ± 0.51 | T/C (%) ([6]; 10 μM 100 μL tail vein): 93.19% | Tumor inhibition rate (%) ([6]; 10 μM 100 μL tail vein): 6.45% | Tumor weight ([6]; 10 μM 100 μL tail vein): 2.92 ± 0.33 | RTV ([6]; 30 μM 100 μL tail vein): 28.56 ± 0.23 | T/C (%) ([6]; 30 μM 100 μL tail vein): 80.34% | Tumor inhibition rate (%) ([6]; 30 μM 100 μL tail vein): 12.91% | Tumor weight ([6]; 30 μM 100 μL tail vein): 2.74 ± 0.15 | RTV ([6]; 50 μM 100 μL tail vein): 26.32 ± 0.15 | T/C (%) ([6]; 50 μM 100 μL tail vein): 74.04% | Tumor inhibition rate (%) ([6]; 50 μM 100 μL tail vein): 16.12% | Tumor weight ([6]; 50 μM 100 μL tail vein): 2.66 ± 0.14 | RTV ([7]; 10 μM tail vein): 34.57 ± 0.18 | T/C (%) ([7]; 10 μM tail vein): 89.93% | Tumor inhibition rate (%) ([7]; 10 μM tail vein): 6.06% | Tumor weight ([7]; 10 μM tail vein): 3.16 ± 0.13 | RTV ([7]; 30 μM tail vein): 31.09 ± 0.27 | T/C (%) ([7]; 30 μM tail vein): 75.76% | Tumor inhibition rate (%) ([7]; 30 μM tail vein): 15.15% | Tumor weight ([7]; 30 μM tail vein): 2.88 ± 0.26 | RTV ([7]; 50 μM tail vein): 26.19 ± 0.38 | T/C (%) ([7]; 50 μM tail vein): 70.06% | Tumor inhibition rate (%) ([7]; 50 μM tail vein): 21.21% | Tumor weight ([7]; 50 μM tail vein): 2.61 ± 0.38
